Experimental data: patent publication US6069156A, “Indole derivatives as cGMP-PDE inhibitors” (Fujisawa Pharmaceutical Co., Ltd., priority 1995, dated 2000)
Counter-ions that a name gives are not always drawn. Like-named read-outs stand apart in the source and are kept apart here.

How the values were obtained:
cGMP-PDE = biological target: T1, cGMP-PDE (Homo sapiens, UniProt O76074); experiment: cGMP-phosphodiesterase (PDE) Assay (human platelets); assay type: biochemical
T1 construct: cGMP-PDE was separated from other isozymes in human platelets; from tissue; host or cells: human platelets
Experimental: cGMP-phosphodiesterase (PDE) Assay
cGMP-PDE was separated from other isozymes in human platelets by a modification of the method of Thompson et. al. (Cyclic Nucleotide Phosphodiesterase (PDE), in Methods of Enzymatic analysis, Vol 4, p127-234, 1984). In enzyme inhibition assays, the test compounds were dissolved in 10% DMSO and then diluted with assay buffer (50 mM Tris-HCl, pH 8.0, 0.1 mM dithiothreitol, 2 mM EGTA and 10 u/ml snake venom), at final concentrations ranging from 10^-10 to 10^-6 M. Assays were performed at 0.1 μM substrate ([^3 H]-cGMP) concentration, at 30° C. for 10 minutes using enzyme dilutions which gave 10-20% hydrolysis of substrate. Each assay was initiated by addition of substrate and terminated by addition of anion exchange resin (Dowex 1-X8, 25 μg/mg) followed by centrifugation for 10 minutes (3000 rpm, at 4° C.). Radioactivity of supernatant (^3 H-GMP) was assayed by liquid scintillation counting.

[1] = test system: Vascular smooth muscle cells (vSMCs); experiment: vSMC Proliferation ([3H]-thymidine, PDGF-stimulated); assay type: cell-based, male Wistar rats; settings: Rattus norvegicus, PDGF 10 ng/ml stimulation
Experimental: Vascular smooth muscle cells (vSMCs) were prepared from explants of the thoracic aorta of 10 week old male Wistar rats by a modification of the method of Ross (J. Cell Biol., 50: 172, 1971). They were cultured in DMEM containing 10% fetal calf serum, 1% penicillin G and 1% streptomycin at 37° C. in a 95% air, 5% CO2 humidified atmosphere. vSMCs were seeded in 24 well plates and cultured in the presence of 10% fetal calf serum for 3 days. Cell growth then was arrested by transfer to serum free DMEA. After 24 hours, each test compound or vehicle was added to medium for 1 hour, and then cells were stimulated by PDGF (10 ng/ml). After 24 hours of additional incubation, [^3 H]-thymidine (1 μCi/ml) was added during the final 4 hours of incubation time, and trichloracetic acid insoluble radioactivity was assayed by liquid scintillation counting.

[2] = 0.1 μM [3H]-cGMP, 30° C., 10 minutes, read-out: IC50

SMILES | IC50 (cGMP-PDE) [nM] | IC50 [1] [nM] | IC50 (cGMP-PDE; [2]) [nM]
CCCc1c(C(N)=O)c2ccc(C(N)=O)cc2n1Cc1ccccc1Cl [75-(15), 1-(2-Chlorobenzyl)-2-propylindole-3,6-dicarboxamide] | < 100 | – | –
CCCc1c(C(=O)C(C)C)c2ccc(NC=O)cc2n1Cc1ccccc1Cl [Example 58, 1-(2-chlorobenzyl)-6-formamido-3-isobutyryl-2-propylindole] | < 100 | – | –
CCCc1c(C(=O)C(C)C)c2ccc(C(N)=O)cc2n1Cc1ccccc1I [37-(3), 1-(2-Iodobenzyl)-3-isobutyryl-2-propylindole-6-carboxamide] | < 100 | – | –
CCCc1c(C(=O)C=C(C)C)c2ccc(C(N)=O)cc2n1Cc1ccccc1Cl [73-(40), 1-(2-Chlorobenzyl)-3-(3-methyl-2-butenoyl)-2-propylindole-6-carboxamide] | < 100 | – | –
CCCc1c(C(=O)Cc2ccccc2)c2ccc(C(N)=O)cc2n1Cc1ccccc1Cl [38-(2), 1-(2-Chlorobenzyl)-3-phenylacetyl-2-propylindole-6-carboxamide] | < 100 | < 100 | –
CCc1c(C(O)C(C)C)c2ccc(C(N)=O)cc2n1Cc1ccccc1Cl (stereo not shown) [Example 69, 1-(2-Chlorobenzyl)-2-ethyl-3-(1-hydroxy-2-methylpropyl)indole-6-carboxamide] | – | – | < 100
N#Cc1ccc2c3c(n(Cc4ccccc4Cl)c2c1)C(=O)CCC3 [67-(2), 9-(2-Chlorobenzyl)-8-oxo-5,6,7,8-tetrahydrocarbazole-2-carbonitrile] | – | < 100 | < 100
CCCc1c(C(=O)CC)c2ccc(C(N)=O)cc2n1Cc1ccccc1Cl [Example 9, 1-(2-Chlorobenzyl)-3-propionyl-2-propylindole-6-carboxamide] | < 100 | < 100 | –
CCCc1c(C(=O)CN2CCOCC2)c2ccc(C(N)=O)cc2n1Cc1ccccc1Cl [75-(10), 1-(2-Chlorobenzyl)-3-morpholinoacetyl-2-propylindole-6-carboxamide] | < 100 | – | –
COCc1c(C(=O)C(C)C)c2ccc(C(N)=O)cc2n1Cc1ccccc1Cl [37-(14), 1-(2-Chlorobenzyl)-3-isobutyryl-2-methoxymethylindole-6-carboxamide] | < 100 | < 100 | –
CC(=O)C=Cc1cn(Cc2ccccc2Cl)c2cc(C(N)=O)ccc12 [75-(38), 1-(2-Chlorobenzyl)-3-(3-oxo-1-butenyl)indole-6-carboxamide] | – | – | < 100
CCCc1c(C(=O)CO)c2ccc(C(N)=O)cc2n1Cc1ccccc1Cl [Example 60, 1-(2-chlorobenzyl)-3-hydroxyacetyl-2-propylindole-6-carboxamide] | < 100 | < 100 | –
CCCc1c(C(=O)C(C)C)c2ccc(C(N)=O)cc2n1Cc1ccc2ccccc2c1 [75-(27), 3-Isobutyryl-2-propyl-1-(2-naphthylmethyl)indole-6-carboxamide] | < 100 | – | –
Cc1c(C(=O)C(C)C)c2ccc(C(N)=O)cc2n1Cc1c(Cl)sc2ccccc12 [75-(21), 1-(2-Chlorobenzo[b]thiophen-3-ylmethyl)-3-isobutyryl-2-methylindole-6-carboxamide] | < 100 | – | –
CCCc1c(C(=O)C(C)C)c2ccc(C(N)=O)cc2n1Cc1ccc(Cl)cc1 [Example 26, 1-(4-chlorobenzyl)-3-isobutyryl-2-propylindole-6-carboxamide] | < 100 | – | –
CCCc1c(C(=O)C(C)C)c2cc(C(N)=O)ccc2n1Cc1ccccc1Cl [75-(4), 1-(2-Chlorobenzyl)-3-isobutyryl-2-propylindole-5-carboxamide] | < 100 | – | –
CCCc1c(C(=O)C(C)C)c2ccc(C(N)=O)cc2n1Cc1cccc(Cl)c1 [27-(2), 1-(3-Chlorobenzyl)-3-isobutyryl-2-propylindole-6-carboxamide] | < 100 | – | –
CCC(O)c1c(C(=O)C(C)C)c2ccc(C(N)=O)cc2n1Cc1ccccc1Cl (stereo not shown) [75-(30), 1-(2-Chlorobenzyl)-2-(1-hydroxypropyl)-3-isobutyrylindole-6-carboxamide] | < 100 | < 100 | –
CCCc1c(C(C)=NO)c2ccc(C(N)=O)cc2n1Cc1ccccc1Cl [Example 70, 1-(2-chlorobenzyl)-3-(1-hydroxyiminoethyl)-2-propylindole-6-carboxamide] | – | – | < 100

SMILES | IC50 (cGMP-PDE) [nM] | IC50 [1] [nM] | IC50 (cGMP-PDE; [2]) [nM]
CCCc1c(C(=O)C(C)C)c2ccc(C(N)=O)cc2n1Cc1ccc(Cl)s1 [27-(5), 1-[(5-Chlorothien-2-yl)methyl]-3-isobutyryl-2-propylindole-6-carboxamide] | < 100 | < 100 | –
CCc1c(CC)n(Cc2ccccc2Cl)c2cc(C(N)=O)ccc12 [37-(17), 1-(2-Chlorobenzyl)-2,3-diethylindole-6-carboxamide] | – | – | < 100
CCC(=O)c1c(CC)n(Cc2ccccc2Cl)c2cc(C(N)=O)ccc12 [Example 15, 1-(2-Chlorobenzyl) -2-ethyl-3-propionylindole-6-carboxamide] | < 100 | < 100 | –
CCCc1c(C(=O)C(C)C)c2ccc(C(N)=O)cc2n1Cc1ccccn1 [Example 39, 3-isobutyryl-2-propyl-1-(2-pyridylmethyl)indole-6-carboxamide hydrochloride] | < 100 | – | –
CCCc1c(C(=O)C(C)C)c2ccc(C(N)=O)cc2n1Cc1ccccc1C#N [37-(6), 1-(2-Cyanobenzyl)-3-isobutyryl-2-propylindole-6-carboxamide] | < 100 | – | –
NC(=O)c1ccc2c(C(=O)O)cn(Cc3ccccc3Cl)c2c1 [Example 63, 6-carbamoyl-1-(2-chlorobenzyl)indole-3-carboxylic acid] | < 100 | – | –
CCc1c(Cl)n(Cc2ccccc2Cl)c2cc(C(N)=O)ccc12 [75-(35), 2-Chloro-1-(2-chlorobenzyl)-3-ethylindole-6-carboxamide] | – | – | < 100
CCCc1c(C#N)c2ccc(C(N)=O)cc2n1Cc1ccccc1Cl [37-(11), 1-(2-Chlorobenzyl)-3-cyano-2-propylindole-6-carboxamide] | – | – | < 100
CCCc1c(C(=O)C(C)C)c2ccc(C(=O)OC)cc2n1Cc1ccccc1Cl [Example 4, Methyl 1-(2-chlorobenzyl)-3-isobutyryl-2-propylindole-6-carboxylate] | < 100 | – | –
CCCc1c(C(=O)C(C)C)c2ccc(C(N)=O)cc2n1Cc1ccc2sccc2c1 [75-(23), 1-(Benzo[b]thiophen-5-ylmethyl)-3-isobutyryl-2-propylindole-6-carboxamide] | < 100 | – | –
CCC(=O)c1c(CC)c2ccc(C(N)=O)cc2n1Cc1ccccc1Cl [Example 21, 1-(2-Chlorobenzyl)-3-ethyl-2-propionylindole-6-carboxamide] | – | – | < 100
CCCc1c(C=O)c2ccc(C(=O)NS(=O)(=O)c3ccccc3)cc2n1Cc1ccccc1Cl [22-(6), 1-(2-Chlorobenzyl)-3-formyl-N-phenylsulfonyl-2-propylindole-6-carboxamide] | < 100 | < 100 | –
CCCc1c(C(=O)C(C)C)c2ccc(C(=O)NO)cc2n1Cc1ccccc1Cl [Example 23, 1-(2-chlorobenzyl)-3-isobutyryl-2-propylindole-6-carbohydroxamic acid] | < 100 | < 100 | –
CC=Cc1c(C(=O)C(C)C)c2ccc(C(N)=O)cc2n1Cc1ccccc1Cl [75-(29), 1-(2-Chlorobenzyl)-3-isobutyryl-2-(1-propenyl)indole-6-carboxamide] | < 100 | < 100 | –
CCCc1c(C(=O)C(C)C)c2ccc(C(N)=O)cc2n1Cc1ccccc1C(=O)OC [25-(2), 3-Isobutyryl-(2-methoxycarbonylbenzyl)-2-propylindole-6-carboxamide] | < 100 | – | –
CC(=O)c1c(CC(C)C)c2ccc(C(N)=O)cc2n1Cc1ccccc1Cl [Example 18, 2-Acetyl-1-(2-chlorobenzyl)-3-isobutylindole-6-carboxamide] | – | – | < 100
NC(=O)c1ccc2c3c(n(Cc4ccccc4Cl)c2c1)C(=O)CC3 [75-(39), 4-(2-Chlorobenzyl)-3-oxo-1,2,3,4-tetrahydrocyclopent[b]indole-6-carboxamide] | – | – | < 100
CCCc1c(C(=O)C(C)C)c2ccc(C(=O)NOC)cc2n1Cc1ccccc1Cl [24-(1), 1-(2-Chlorobenzyl)-3-isobutyryl-O-methyl-2-propylindole-6-carbohydroxamic acid] | < 100 | < 100 | –
